# System: Staphylococcus aureus MRSA ATCC 43300 biofilm
# Assay: Biofilm minimum inhibitory concentration (Biofilm MIC), crystal violet OD590
# Format: cell-based
# Description: The collaborator supplied sample as dry material. A stock solution at 10 mg/mL in neat DMSO (11.2 mg in 1.12 mL of DMSO) was prepared. The highest concentration tested in the assay was 128 μg/mL and 2% DMSO as a final concentration using 1/20 dilution to achieve these concentrations.
# Bacteria (Staphylococcus aureus, ATCC 43300; MRSA) was cultured on Tryptic Soy Broth (TSB, BD, Cat. No. 211825) at 37° C. overnight, then it was diluted 1:100 in fresh TSB supplemented with 5% glucose. 100 μL were added across the 96-well of polystyrene (PS) (Corning; Cat. No. 3370) plate, leaving row H as media Control. Plates were incubated at 37° C. for 48 h to generate the biofilm. The plates were prepared in duplicate.
# The antibiotic controls and CBD were serially diluted in TSB with 5% glucose two-fold across the wells of polystyrene (PS) 96-well plates (Corning; Cat. No. 3370), plated in duplicate. All plates had flat bottom wells and were covered with low-evaporation lids.
# 48 h after incubation, bacteria plates were carefully washed three times with 200 μL/well of saline solution (0.9% NaCl, Baxter Healthcare; Cat. No. AHF7124) using manual pipette to remove the planktonic cells but leave the biofilm adhered to the plate wells. Then, 100 μL of diluted controls and CBD were transferred into the washed plates containing the biofilm. Then, these plates were incubated at 37° C. for 24 h.
# Next day, plates were washed three times with saline solution, then fixed with 100 μL/well of 99% methanol for 15 minutes. Once the biofilm was fixed, 100 μL/well 0.1% Crystal Violet Stain (Sigma; Cat No. C0775-25G) was added for 20 minutes and used as indicator of biofilm formation, followed by three times washing and dry well. To dissolve the crystal violet, 150 μL/well of methanol was added to allow for biofilm MIC analysis.
# The biofilm formation was determined by optical density read at 590 nm (OD590). The percentage of biofilm formation was evaluated comparing the average, standard deviation and percentage of confidence of the media control (Row H) against the rest of the plate.
# Analysis was performed using Microsoft Excel.
structure (smiles),measurement,setting,value
"C=C(C)C1CCC(C)=CC1c1c(O)cc(CCCCC)cc1O (centres unmarked) [Cannabidiol, 2-[3-methyl-6-(1-methylethenyl)-2-cyclohexen-1-yl]-5-pentyl-1,3-benzenediol]",biofilm MIC,,1 to 2 µg/mL
same,biofilm MIC relative to standard vegetative cell MIC,,approximately four-fold
same,inhibition of 48 h biofilm formation,at 2 and 4 μg/mL,up to 75%
same,Biofilm MIC (TSB + 5% Gluc) 07/112/18,"first biological replicate, two technical replicates, ≥70% inhibition OD590",4 µg/mL
same,Biofilm MIC (TSB + 5% Gluc) 14/112/18,"second biological replicate, two technical replicates, ≥70% inhibition OD590",2 µg/mL
